Assay [1] concerns the target TBK1 (Homo sapiens (Human), UniProt Q9UHD2). Put plainly: TBK Biochemical Assay. As to the method: Example 106: TBK Biochemical Assay Test compounds were transferred into Labcyte polypropylene 384 well plates ([…]-25) and diluted to 3 mM using DMSO. 3 mM test compounds were dispensed using Labcyte ECHO dose response module into Greiner 784075 plates (columns 3-12 and 13-22, 10 point 1:4) so that high concentration was 30 uM final. 100 uM of a reference compound (1 uM final high concentration). Backfilling was performed if necessary so that all wells contain 1% DMSO final: add 75 nl DMSO/well into columns 1, 2 and 24 using Labcyte Echo. add 75 nl 1.0 mM staurosporine/well into column 23 using Labcyte Echo (10 uM final) add 4.5 ul enzyme/well using multidrop dispenser add 3 ul substrate/well using multidrop dispenser incubate at 25° C. in Heidolph incubator for 90 min. add 7.5 ul 2× stop buffer using multidrop dispenser read on labchip ez reader II using TBK1.job Raw data files were opened in the Caliper LabChip Reviewer program (Version 3.0.265.0 SP2) and peak assignments were adjusted to reflect “substrate first” with the software's post-run analysis options. A spline-fit baseline was applied using the software's analysis algorithm.

Assay [2] deals with IKKe (Homo sapiens (Human), UniProt Q14164). Briefly: IKKe Biochemical Assay. As to the method: IKKe Biochemical Assay Test compounds were transferred into Labcyte polypropylene 384 well plates ([…]-25) and diluted to 3 mM using DMSO. 3 mM test compounds were dispensed using Labcyte ECHO dose response module into Greiner 784075 plates (columns 3-12 and 13-22, 10 point 1:4) so that high concentration was 30 uM final. 100 uM of a reference compound (1 uM final high concentration). Backfilling was performed if necessary so that all wells contain 1% DMSO final: add 75 nl DMSO/well into columns 1, 2 and 24 using Labcyte Echo. add 75 nl 1.0 mM staurosporine/well into column 23 using Labcyte Echo (10 uM final) add 4.5 ul enzyme/well using multidrop dispenser add 3 ul substrate/well using multidrop dispenser incubate at 25° C. for 90 min. add 7.5 ul 2× stop buffer read on labchip ez reader II using IKKε. job Raw data files were opened in the Caliper LabChip Reviewer program (Version 3.0.265.0 SP2) and peak assignments were adjusted to reflect “substrate first” with the software's post-run analysis options. A spline-fit baseline was applied using the software's analysis algorithm.
Chain of IKKe (Q14164 whole entry, species assumed): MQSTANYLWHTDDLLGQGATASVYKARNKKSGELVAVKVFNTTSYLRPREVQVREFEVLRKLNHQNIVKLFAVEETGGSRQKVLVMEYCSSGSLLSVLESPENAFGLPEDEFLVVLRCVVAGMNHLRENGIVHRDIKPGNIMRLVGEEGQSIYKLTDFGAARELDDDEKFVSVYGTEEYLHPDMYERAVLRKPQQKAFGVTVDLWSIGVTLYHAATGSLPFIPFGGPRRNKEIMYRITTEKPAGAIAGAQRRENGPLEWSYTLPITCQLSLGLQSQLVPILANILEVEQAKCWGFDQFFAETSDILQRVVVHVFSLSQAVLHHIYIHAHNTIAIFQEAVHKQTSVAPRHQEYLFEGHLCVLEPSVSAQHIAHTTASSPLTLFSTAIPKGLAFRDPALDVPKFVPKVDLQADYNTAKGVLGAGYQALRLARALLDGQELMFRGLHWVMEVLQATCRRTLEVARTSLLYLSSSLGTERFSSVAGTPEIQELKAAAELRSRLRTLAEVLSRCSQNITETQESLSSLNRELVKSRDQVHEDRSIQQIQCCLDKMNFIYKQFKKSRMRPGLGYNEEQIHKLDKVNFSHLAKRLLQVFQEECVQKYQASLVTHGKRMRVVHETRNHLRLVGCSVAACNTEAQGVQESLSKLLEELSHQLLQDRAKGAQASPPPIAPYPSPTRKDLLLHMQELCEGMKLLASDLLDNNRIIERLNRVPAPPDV

Structures can show the parent of a compound that is named as a salt.

Chain of TBK1 (Q9UHD2 whole entry, species assumed): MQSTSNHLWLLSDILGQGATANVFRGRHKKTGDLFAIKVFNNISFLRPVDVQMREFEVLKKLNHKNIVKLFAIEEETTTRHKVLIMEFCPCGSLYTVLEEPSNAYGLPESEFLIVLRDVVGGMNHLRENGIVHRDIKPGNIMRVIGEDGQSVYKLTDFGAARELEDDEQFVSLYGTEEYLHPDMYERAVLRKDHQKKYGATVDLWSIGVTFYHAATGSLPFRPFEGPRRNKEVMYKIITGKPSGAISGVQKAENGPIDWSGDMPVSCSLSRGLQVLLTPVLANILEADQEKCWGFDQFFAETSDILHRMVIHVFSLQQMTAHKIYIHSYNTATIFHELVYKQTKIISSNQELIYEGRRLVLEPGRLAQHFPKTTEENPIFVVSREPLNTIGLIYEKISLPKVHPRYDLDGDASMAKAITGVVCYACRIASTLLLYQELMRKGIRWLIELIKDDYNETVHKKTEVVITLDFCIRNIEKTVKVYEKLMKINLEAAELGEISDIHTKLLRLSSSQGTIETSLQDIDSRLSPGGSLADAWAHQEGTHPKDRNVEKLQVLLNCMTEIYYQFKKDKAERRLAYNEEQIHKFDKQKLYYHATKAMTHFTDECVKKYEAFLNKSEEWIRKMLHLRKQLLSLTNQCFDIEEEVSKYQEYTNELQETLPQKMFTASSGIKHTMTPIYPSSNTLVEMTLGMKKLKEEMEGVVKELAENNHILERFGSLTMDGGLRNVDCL

As usually defined, the IC50 is the concentration that inhibits the measured activity by half. A lower IC50 goes with greater potency. `COc1nc(Nc2cc(-c3ccc(O[C@H]4CCNC[C@H]4F)c(C#N)c3)ncn2)ccc1C(=O)N(C)C` [Example 46, 6-[[6-(3-cyano-4-[[(3R,4S)-3-fluoropiperidin-4-yl]oxy]phenyl)pyrimidin-4-yl]amino]-2-methoxy-N,N-dimethylpyridine-3-carboxamide]: the IC50 in assay [1] and in assay [2] was 100 to 1000 nM each time.

Turning to `COc1nc(Nc2cc(-c3ccc(O[C@H]4CCN(C(=O)CO)C[C@H]4F)c(C#N)c3)ncn2)ccc1C(=O)N(C)C` [Example 47, 6-[[6-(3-cyano-4-[[(3R,4S)-3-fluoro-1-(2-hydroxyacetyl)piperidin-4-yl]oxy]phenyl)pyrimidin-4-yl]amino]-2-methoxy-N,N-dimethylpyridine-3-carboxamide], the IC50 in assay [1] and in assay [2] was < 100 nM throughout.

In the case of `COc1nc(Nc2cc(-c3ccc(OC4CCN(C)CC4(F)F)c(C#N)c3)ncn2)ccc1C(=O)N(C)C` (stereo not shown) [Example 48, 6-[(6-[3-cyano-4-[(3,3-difluoro-1-methylpiperidin-4-yl)oxy]phenyl]pyrimidin-4-yl)amino]-2-methoxy-N,N-dimethylpyridine-3-carboxamide], the IC50 in assay [1] and in assay [2] was < 100 nM in each case.

With `COc1nc(Nc2cc(-c3ccc(OC4CCN(C(=O)CO)CC4(F)F)c(C#N)c3)ncn2)ccc1C(=O)N(C)C` (stereo not shown) [Example 49, 6-[[6-(3-cyano-4-[[3,3-difluoro-1-(2-hydroxyacetyl)piperidin-4-yl]oxy]phenyl)pyrimidin-4-yl]amino]-2-methoxy-N,N-dimethylpyridine-3-carboxamide], the IC50 in assay [1] and in assay [2] was < 100 nM throughout.

Take `COc1nc(Nc2cc(-c3ccc(OC4CCNCC4)c(C#N)c3)ncn2)ccc1N1CCN(C)CC1` [Example 50, 5-(6-[[6-methoxy-5-(4-methylpiperazin-1-yl)pyridin-2-yl]amino]pyrimidin-4-yl)-2-(piperidin-4-yloxy)benzonitrile]: the IC50 in assay [1] and in assay [2] was < 100 nM throughout.

For the compound `COc1nc(Nc2cc(-c3ccc(OC4CCN(C)CC4)c(C#N)c3)ncn2)ccc1N1CCN(C)CC1` [Example 51, 5-(6-[[6-methoxy-5-(4-methylpiperazin-1-yl)pyridin-2-yl]amino]pyrimidin-4-yl)-2-[(1-methylpiperidin-4-yl)oxy]benzonitrile], the IC50 in assay [1] and in assay [2] was 100 to 1000 nM each time.

Consider `COc1nc(Nc2cc(-c3ccc(OC4CCN(C(=O)CO)CC4)c(C#N)c3)ncn2)ccc1N1CCN(C)CC1` [Example 52, 2-[[1-(2-hydroxyacetyl)piperidin-4-yl]oxy]-5-(6-[[6-methoxy-5-(4-methylpiperazin-1-yl)pyridin-2-yl]amino]pyrimidin-4-yl)benzonitrile], for which the IC50 in assay [1] and in assay [2] was < 100 nM in each case.

As for `COc1nc(Nc2cc(-c3ccc(OC4CCN(C(=O)C(C)O)CC4)c(C#N)c3)ncn2)ccc1N1CCN(C)CC1` (stereo not shown) [Example 53, 2-[[1-(2-hydroxypropanoyl)piperidin-4-yl]oxy]-5-(6-[[6-methoxy-5-(4-methylpiperazin-1-yl)pyridin-2-yl]amino]pyrimidin-4-yl)benzonitrile], the IC50 in assay [1] and in assay [2] was < 100 nM each time.

Turning to `COc1nc(Nc2cc(-c3ccc(OC4CCN(C(=O)c5cocn5)CC4)c(C#N)c3)ncn2)ccc1N1CCN(C)CC1` [Example 54, 5-(6-[[6-methoxy-5-(4-methylpiperazin-1-yl)pyridin-2-yl]amino]pyrimidin-4-yl)-2-([1-[(1,3-oxazol-4-yl)carbonyl]piperidin-4-yl]oxy)benzonitrile], the IC50 in assay [1] and in assay [2] was < 100 nM each time.

As for `COc1nc(Nc2cc(-c3ccc(OC4CCN(C(=O)c5n[nH]c(C)n5)CC4)c(C#N)c3)ncn2)ccc1N1CCN(C)CC1` [Example 55, 5-(6-[[6-methoxy-5-(4-methylpiperazin-1-yl)pyridin-2-yl]amino]pyrimidin-4-yl)-2-([1-[(5-methyl-1H-1,2,4-triazol-3-yl)carbonyl]piperidin-4-yl]oxy)benzonitrile], the IC50 in assay [1] and in assay [2] was < 100 nM throughout.

For `COc1nc(Nc2cc(-c3ccc(OC4CCN(C(=O)c5cnco5)CC4)c(C#N)c3)ncn2)ccc1N1CCN(C)CC1` [Example 56, 5-(6-[[6-methoxy-5-(4-methylpiperazin-1-yl)pyridin-2-yl]amino]pyrimidin-4-yl)-2-([1-[(1,3-oxazol-5-yl)carbonyl]piperidin-4-yl]oxy)benzonitrile], the IC50 in assay [1] and in assay [2] was < 100 nM throughout.

Turning to `COc1nc(Nc2cc(-c3ccc(O[C@H]4CCN(C(=O)c5cnn[nH]5)C[C@H]4F)c(C#N)c3)ncn2)ccc1N1CCN(C)CC1` [Example 57, 2-[[(3R,4S)-3-fluoro-1-[(1H-1,2,3-triazol-5-yl)carbonyl]piperidin-4-yl]oxy]-5-(6-[[6-methoxy-5-(4-methylpiperazin-1-yl)pyridin-2-yl]amino]pyrimidin-4-yl)benzonitrile], the IC50 in assay [1] and in assay [2] was < 100 nM each time.

Consider `COc1nc(Nc2cc(-c3ccc(OC4CCN(C)CC4(F)F)c(C#N)c3)ncn2)ccc1N1CCN(C)CC1` (stereo not shown) [Example 58, 2-[(3,3-difluoro-1-methylpiperidin-4-yl)oxy]-5-(6-[[6-methoxy-5-(4-methylpiperazin-1-yl)pyridin-2-yl]amino]pyrimidin-4-yl)benzonitrile], for which the IC50 in assay [1] and in assay [2] was < 100 nM in each case.

For `COc1nc(Nc2cc(-c3ccc(OC4CCN(C(=O)CO)CC4(F)F)c(C#N)c3)ncn2)ccc1N1CCN(C)CC1` (stereo not shown) [Example 59, 2-[[3,3-difluoro-1-(2-hydroxyacetyl)piperidin-4-yl]oxy]-5-(6-[[6-methoxy-5-(4-methylpiperazin-1-yl)pyridin-2-yl]amino]pyrimidin-4-yl)benzonitrile], the IC50 in assay [1] and in assay [2] was < 100 nM each time.

In the case of `COc1nc(Nc2cc(-c3ccc(O[C@H]4CCN(C(=O)CO)CC4(F)F)c(C#N)c3)ncn2)ccc1N1CCN(C)CC1` [Example 60, 2-[[(4S)-3,3-difluoro-1-(2-hydroxyacetyl)piperidin-4-yl]oxy]-5-(6-[[6-methoxy-5-(4-methylpiperazin-1-yl)pyridin-2-yl]amino]pyrimidin-4-yl)benzonitrile], the IC50 in assay [1] and in assay [2] was < 100 nM throughout.

`COc1nc(Nc2cc(-c3ccc(OC4CCN(C(=O)[C@H](C)O)CC4(F)F)c(C#N)c3)ncn2)ccc1N1CCN(C)C[C@@H]1C` (stereo partly drawn) [Example 62, 2-([3,3-difluoro-1-[(2S)-2-hydroxypropanoyl]piperidin-4-yl]oxy)-5-[6-([5-[(2S)-2,4-dimethylpiperazin-1-yl]-6-methoxypyridin-2-yl]amino)pyrimidin-4-yl]benzonitrile hydrochloride]: the IC50 in assay [1] and in assay [2] was < 100 nM throughout.

As to `COc1nc(Nc2cc(-c3ccc(OC4CCN(C(=O)[C@@H](C)O)CC4(F)F)c(C#N)c3)ncn2)ccc1N1CCN(C)C[C@@H]1C` (stereo partly drawn) [Example 63, 2-([3,3-difluoro-1-[(2R)-2-hydroxypropanoyl]piperidin-4-yl]oxy)-5-[6-([5-[(2S)-2,4-dimethylpiperazin-1-yl]-6-methoxypyridin-2-yl]amino)pyrimidin-4-yl]benzonitrile hydrochloride], the IC50 in assay [1] and in assay [2] was < 100 nM each time.

Values taken from patent US11440899B2, “Pyrimidine TBK/IKKe inhibitor compounds and uses thereof” (Merck Patent GmbH, priority 2017, dated 2022).
